According to patent US8629318B2, “Transgenic animals for analyzing CYP3A4 cytochrome P450 gene regulation” (University of Sydney, priority 2000, dated 2014):
Entries after “also recorded” stand apart in the source; their conditions may differ.

What was measured:
−13CYP3A4/lacZ transgene [1] = experiment: β-galactosidase activity in total liver lysates, ONPG assay, line 9/4; assay type: in vivo, mouse; settings: 100 mg/kg i.p. daily for 4 days, FIG. 3A
Description: (§1) Administration of xenobiotics to mice. 8-10 week old male and female mice hemizygous for the −CYP3A4/lacZ and −13CYP3A4/lacZ transgenes were used to test the ability of a range of xenobiotics and hormones to activate expression of transgene-derived β-galactosidase. […] The dose used for all reagents to test for induction of the transgene was 100 mg/kg body weight. Dose response studies were carried out in the range of 1-100 mg/kg with male hemizygous transgenic mice.
(§2) Analysis of transgene and mouse Cyp3a gene expression. β-galactosidase activity was visualised in slices and frozen sections of liver and other tissues by staining with X-gal (5-bromo-4-chloro-3-indolyl-β-D-galactopyranoside). Tissues were fixed in 0.25% glutaraldehyde, 0.1 M phosphate buffer pH7.3, 5 mM EGTA, 2 mM MgCl2: washed in 0.1 M phosphate buffer pH7.3, 0.01% sodium deoxycholate, 0.025% NP40, 2 mM MgCl2 and stained by incubation at 37° C. in wash solution supplemented with 1 mg/ml X-gal, 5 mM potassium ferricyanide, and 5 mM potassium ferrocyanide. The level of β-galactosidase activity was determined in whole liver homogenates [100 mg fresh tissue/ml 0.25M Tris-HCl (pH 7.3)] using the O-nitrophenyl-β-D-galactopyranoside (ONPG) assay according to standard techniques. After appropriate dilution the homogenate was incubated with β-galactosidase assay reagent (0.1 M sodium phosphate buffer (pH7.3)/1 mM MgCl2/50 mmol β-mercaptoethanol/0.88 mg/ml ONPG) at 37° C., quenched by the addition of 1 M Na2CO3 and the absorbance at 420 nm determined. The units of β-galactosidase activity are given as A420/mg liver/minute.

−13CYP3A4/lacZ transgene [2] = system: −13CYP3A4/lacZ transgene
Description: as §1, §2

−13CYP3A4/lacZ transgene [3] = experiment: Xenobiotic induction of transgene expression in line 15/10; assay type: in vivo, mouse; settings: data not shown
Description: as §1
Analysis of transgene and mouse Cyp3a gene expression. β-galactosidase activity was visualised in slices and frozen sections of liver and other tissues by staining with X-gal (5-bromo-4-chloro-3-indolyl-β-D-galactopyranoside). […] The level of β-galactosidase activity was determined in whole liver homogenates [100 mg fresh tissue/ml 0.25M Tris-HCl (pH 7.3)] using the O-nitrophenyl-β-D-galactopyranoside (ONPG) assay according to standard techniques. After appropriate dilution the homogenate was incubated with β-galactosidase assay reagent (0.1 M sodium phosphate buffer (pH7.3)/1 mM MgCl2/50 mmol β-mercaptoethanol/0.88 mg/ml ONPG) at 37° C., quenched by the addition of 1 M Na2CO3 and the absorbance at 420 nm determined. […]

mouse Cyp3all gene = settings: in vivo, ip, 100 mg/kg
Description: as §1
Filters were stripped and reprobed with an 18S rRNA oligonucleotide to normalise loading.

For `CC(=O)[C@H]1CC[C@H]2[C@@H]3CC=C4C[C@@H](O)CC[C@]4(C)[C@H]3CC[C@]12C` [pregnenolone], the “relative degree of induction of transgene, β-galactosidase activity in liver lysates” value (from here on “relative degree”) (−13CYP3A4/lacZ transgene [1]; 100 mg/kg) was “very weak inducers; also recorded: the induction was weak compared with xenobiotics”.
In the case of `C[C@@H]1C[C@H]2[C@@H]3CCC4=CC(=O)C=C[C@]4(C)[C@@]3(F)[C@@H](O)C[C@]2(C)[C@@]1(O)C(=O)COP(=O)(O)O` [dexamethasone, dexamethasone phosphate], the “thickness of zone of X-gal positive hepatocytes” value (−13CYP3A4/lacZ transgene [2]; line 9/4, 100 mg/kg, FIG. 4B) is reported as “up to 10 cells”, the “thickness of zone of hepatocytes expressing the transgene around the central vein (X-gal)” value (−13CYP3A4/lacZ transgene [2]; line 9/4, low doses, FIG. 4B) is reported as 1-2 cells and the “induction profile of transgene expression” value (−13CYP3A4/lacZ transgene [3]) is reported as “most potent activator”.
`Clc1ccccc1C(c1ccccc1)(c1ccccc1)n1ccnc1` [clotrimazole] was tested, and the “relative degree” value (−13CYP3A4/lacZ transgene [1]) was “intermediate inducers”.
For `CC(=O)[C@H]1[C@H](C#N)C[C@H]2[C@@H]3CC=C4C[C@@H](O)CC[C@]4(C)[C@H]3CC[C@@]21C` [pregnenolone 16α-carbonitrile], the “hepatic transgene expression, X-gal staining of liver slices (cells containing β-galactosidase)” value (−13CYP3A4/lacZ transgene [2]; female mice line 9/4, 100 mg/kg i.p. daily for 4 days, compared with corn oil treated mice) was “increased zone of blue staining cells”, the “relative degree” value (−13CYP3A4/lacZ transgene [1]; 100 mg/kg) was “most potent xenobiotic activators; also recorded: most potent inducers” and the “hepatic Cyp3all mRNA, females versus males” value (mouse Cyp3all gene) was “higher levels of Cyp3all mRNA were observed in females than males”.
`O=C1NC(=O)C(c2ccccc2)(c2ccccc2)N1` [phenyloin] was tested, and the “relative degree” value (−13CYP3A4/lacZ transgene [1]) was “intermediate inducers”.
